Values quoted from earlier work in patent publication US7658956B2, “Erectile dysfunction phyto-nutraceutical synergistic composition” (priority 2006, dated 2010).

Tests used:
spermatozoa = conditions: in vitro
[1] = tested on: patients with erectile dysfunction; conditions: 30 patients per group
[2] = tested on: bacterial resistance mechanism (multidrug pump)

Vitamin E
treated patients who impregnated their spouses (asthenospermic patients; Eleven out of 52 treated patients): 21% | MDA concentration in spermatozoa (asthenospermic patients; oral, asthenospermic patients): significantly decreased | sperm motility (asthenospermic patients; oral, asthenospermic patients): improved sperm motility | ROS mediated damage on spermatozoa (spermatozoa): protects against ROS mediated damage

C[C@H](CC[C@@]1(O)O[C@H]2C[C@H]3[C@@H]4CC=C5C[C@@H](O[C@@H]6O[C@H](CO)[C@@H](O[C@@H]7O[C@@H](C)[C@H](O)[C@@H](O)[C@H]7O)[C@H](O)[C@H]6O[C@@H]6O[C@@H](C)[C@H](O)[C@@H](O)[C@H]6O)CC[C@]5(C)[C@H]4CC[C@]3(C)[C@H]2[C@@H]1C)CO[C@@H]1O[C@H](CO)[C@@H](O)[C@H](O)[C@H]1O [Protodioscin]
pro-erectile activity (relaxant effect) (rabbit corpus cavernosum): pro-erectile activity

O=c1n(CCCN2CCN(c3cccc(Cl)c3)CC2)nc2ccccn12 [trazodone]
overall therapeutic efficacies on erectile dysfunction [1]: 30%

COc1cc([C@H]2Oc3cc(-c4cc(=O)c5c(O)cc(O)cc5o4)cc(OC)c3O[C@@H]2CO)ccc1O (racemic) [5′-MHC, 5′-methoxyhydnocarpin]
accumulation of berberine in the cells ([2]; in the presence of 5′-MHC): strong increase | activity of herbal Berberine alkaloids under the action of 5′-MHC ([2]; in vitro): strongly potentiated
